Series [1] can be described thus: Oral bioavailability in dog. The conditions noted are these: in vivo. Type of series: ADME, organism-based, Canis lupus familiaris.
For series [2], the system named is Hs-578T. The series can be described thus: Antiproliferative activity against human Hs-578T cells incubated for 72 hrs by Cell Titer Glo luminescence assay. Type of series: functional, cell-based.
Series [3] can be described thus: Metabolic stability in dog hepatocytes assessed as bioavailability at 1 uM measured upto 90 mins by LC-MS/MS analysis. Type of series: ADME, Canis lupus familiaris, Hepatocyte.
For series [4], the system named is A2058. The experiment in a line: Antiproliferative activity against human A2058 cells incubated for 72 hrs by Cell Titer Glo luminescence assay. The format is functional, cell-based. The note with it: A2058, 72 h.
Series [5] in a line: Protein binding in plasma (unknown origin). Type of series: ADME, cell-free. The conditions noted are these: read-out: PPB (converted).
Series [6] is described as follows: Selectivity ratio of IC50 for inhibition of full-length human PDE3A expressed in Sf9 cells to EC50 for antiproliferative activity against human HeLa cells.
Series [7] in a line: Half life in iv dosed rat. The format is ADME, organism-based. The note with it: in vivo.
Series [8] in a line: Antiproliferative activity against human IGR-37 cell line. Type of series: functional, cell-based.
Series [9] can be described thus: Metabolic stability in rat hepatocytes assessed as bioavailability at 1 uM measured upto 90 mins by LC-MS/MS analysis. Type of series: ADME, Hepatocyte.
A short description of series [10]: Antiproliferative activity against human L3.3 cells incubated for 72 hrs by Cell Titer Glo luminescence assay. The format is functional, cell-based. The note with it: L3.3, 72 h. (Cellular ATP, detected with luciferase, serves as a proxy for viable cell number.)
The test system of series [11] is C32. The experiment in a line: Antiproliferative activity against human C32 cells incubated for 72 hrs by Cell Titer Glo luminescence assay. Type of series: functional, cell-based. The note with it: C32, 72 h.
Series [12] concerns DK-MG. The experiment in a line: Antiproliferative activity against human DK-MG cells incubated for 72 hrs by Cell Titer Glo luminescence assay. The format is functional, cell-based.
A short description of series [13]: Oral bioavailability in mouse. The format is ADME, organism-based. The conditions noted are these: in vivo.
Series [14] relates to HeLa. The experiment in a line: Antiproliferative activity against human HeLa cells incubated for 72 hrs by Cell Titer Glo luminescence assay. The format is functional, cell-based.
Series [15] can be described thus: Oral bioavailability in rat. The format is ADME, organism-based. The note with it: in vivo.
A short description of series [16]: Toxicity in NOD-SCID mouse assessed as tolerability at 10 mg/kg, po BID. Type of series: organism-based. The conditions noted are these: in vivo.
The nature of series [17]: Antiproliferative activity against human NCI-H196 cells incubated for 72 hrs by Cell Titer Glo luminescence assay. The note with it: NCI-H196, 72 h. The format is functional, cell-based.
Series [18] concerns the target cGMP-inhibited 3',5'-cyclic phosphodiesterase 3A (Homo sapiens, UniProt Q14432). The experiment in a line: Inhibition of human full-length PDE3A expressed in Sf9 cells using [8-3H]adenosine 3', 5'-cyclic phosphate as substrate incubated for 60 mins by microbeta scintillation counting method.
A short description of series [19]: Clearance in rat blood. Type of series: ADME, tissue-based.
Series [20] concerns RVH-421. The experiment in a line: Antiproliferative activity against human RVH-421 cells incubated for 72 hrs by Cell Titer Glo luminescence assay. Type of series: functional, cell-based. The note with it: RVH-421, 72 h.
The test system of series [21] is GB-1. The experiment in a line: Antiproliferative activity against human GB-1 cells incubated for 72 hrs by CellTiter-Glo luminescence assay. Type of series: functional, cell-based. The conditions noted are these: GB-1, 72 h.
Series [22] in a line: Metabolic stability in mouse hepatocytes assessed as bioavailability at 1 uM measured upto 90 mins by LC-MS/MS analysis. Type of series: ADME, Hepatocyte.
The nature of series [23]: Half life in iv dosed dog. Type of series: ADME, organism-based, Canis lupus familiaris. The note with it: in vivo.
A short description of series [24]: Antiproliferative activity against human NCI-H2172 cells incubated for 72 hrs by Cell Titer Glo luminescence assay. Type of series: functional, cell-based. The note with it: NCI-H2172, 72 h.
In series [25] the test system is IGR-37 cell line. The series can be described thus: Antitumor activity against human IGR-37 cells xenografted in po dosed NMRI nude mouse assessed as tumor growth inhibition administered twice daily. The format is functional, organism-based. The note with it: dose 0.5-2.5 mg/kg.
Series [26] is described as follows: Clearance in mouse blood. Type of series: ADME, tissue-based.
Series [27] can be described thus: Half life in iv dosed mouse. The format is ADME, organism-based. The conditions noted are these: in vivo.
A short description of series [28]: Metabolic stability in human hepatocytes assessed as bioavailability at 1 uM measured upto 90 mins by LC-MS/MS analysis. Type of series: ADME, Hepatocyte.
For series [29], the system named is SK-MEL3. The series can be described thus: Antiproliferative activity against human SK-MEL3 cells incubated for 72 hrs by Cell Titer Glo luminescence assay. The note with it: SK-MEL3, 72 h. The format is functional, cell-based.
The nature of series [30]: Toxicity in NOD-SCID mouse assessed as weight loss at 10 mg/kg, po BID. The format is organism-based. The conditions noted are these: in vivo.

Chain of cGMP-inhibited 3',5'-cyclic phosphodiesterase 3A (Q14432 whole entry): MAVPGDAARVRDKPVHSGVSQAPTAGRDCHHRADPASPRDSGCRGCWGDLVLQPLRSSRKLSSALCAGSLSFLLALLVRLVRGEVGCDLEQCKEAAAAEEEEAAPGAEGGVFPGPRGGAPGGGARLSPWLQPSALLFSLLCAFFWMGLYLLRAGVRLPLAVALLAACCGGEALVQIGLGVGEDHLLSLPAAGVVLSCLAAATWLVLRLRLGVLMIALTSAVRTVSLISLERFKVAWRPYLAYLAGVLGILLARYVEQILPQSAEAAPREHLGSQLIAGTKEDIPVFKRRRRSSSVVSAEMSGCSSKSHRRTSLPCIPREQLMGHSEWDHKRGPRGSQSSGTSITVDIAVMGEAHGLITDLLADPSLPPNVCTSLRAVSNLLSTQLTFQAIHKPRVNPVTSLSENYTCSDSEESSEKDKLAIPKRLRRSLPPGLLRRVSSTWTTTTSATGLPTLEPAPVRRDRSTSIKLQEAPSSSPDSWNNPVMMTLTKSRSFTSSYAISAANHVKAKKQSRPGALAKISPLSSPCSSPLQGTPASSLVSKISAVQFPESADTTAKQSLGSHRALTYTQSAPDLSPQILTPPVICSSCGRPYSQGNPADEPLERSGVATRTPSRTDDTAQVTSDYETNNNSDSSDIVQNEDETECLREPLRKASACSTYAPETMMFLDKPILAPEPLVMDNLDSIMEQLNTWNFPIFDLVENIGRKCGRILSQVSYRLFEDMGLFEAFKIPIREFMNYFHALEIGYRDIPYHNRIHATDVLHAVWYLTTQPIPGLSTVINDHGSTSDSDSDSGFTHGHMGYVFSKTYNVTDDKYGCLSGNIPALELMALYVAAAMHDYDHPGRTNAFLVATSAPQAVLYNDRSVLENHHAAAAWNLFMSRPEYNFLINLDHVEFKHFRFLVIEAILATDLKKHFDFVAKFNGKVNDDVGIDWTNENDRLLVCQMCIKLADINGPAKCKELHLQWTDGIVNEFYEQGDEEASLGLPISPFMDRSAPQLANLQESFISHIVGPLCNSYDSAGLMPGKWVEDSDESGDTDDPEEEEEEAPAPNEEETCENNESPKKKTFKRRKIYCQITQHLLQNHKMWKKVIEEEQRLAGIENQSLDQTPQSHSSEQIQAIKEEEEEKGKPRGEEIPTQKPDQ

In the case of `C[C@@H]1OC(=O)NN=C1c1ccc(-c2ccc(F)cc2)c(C(F)(F)F)c1`, the bioavailability in series [1], in series [13] and in series [15] was greater than 95% throughout. The half-maximal effective concentration (EC50) in [2] amounted to 33 nM; in [4] it was 38 nM; in series [8], 3.1 nM; in series [10], 82 nM; in series [11], 58 nM; in [12], 22 nM. Besides, the EC50 was 1.04 nM in [14]; 150 nM in series [17]; 140 nM in series [20]; 8 nM in series [21]; 38 nM in series [24]; 2.81 nM in series [29]. The Fh at 1.5 h, 1 µM in series [3] was 70%; in series [22], 85%. Besides, in series [5], the fraction unbound was 0.002. Further, in series [6], the “Ratio IC50/EC50” value was 79. Further, the half-life in series [7] is 900 min; in series [23], 780 min; in series [27], 276 min. Further, the predicted hepatic bioavailability (Fh) from hepatocyte stability at 1 µM in series [9] was 94%. Moreover, the Activity result in [16] was “Non-Toxic”; in series [25], “Dose-Dependent Effect”; in series [30], “Non-Toxic”. The molecule also showed an IC50 in [18] of 82 nM. Further, the clearance in series [19] is 4.17 mL/min/kg; in series [26] it was 12.5 mL/min/kg. In addition, the hepatic bioavailability predicted from hepatocyte stability (Fh) at 1 µM in series [28] was 73%.
As for `C[C@@H]1OC(=O)NN=C1c1ccc(-n2cc(C(F)(F)F)cn2)c(C(F)(F)F)c1`, the EC50 turned out to be 116 nM in [2]; 96 nM in [4]; 312 nM in series [10]; 132 nM in series [11]; 59 nM in [12]; 2.29 nM in series [14]. Besides, the EC50 in series [17] is 355 nM; in [20] it was 262 nM; in series [24], 101 nM; in [29] it was 5.26 nM. Moreover, the results for the Fh at 1.5 h, 1 µM in series [3] and in series [22] were 87% and 63%, respectively. Besides, the “Ratio IC50/EC50” value in series [6] stood at 265. The predicted hepatic bioavailability (Fh) from hepatocyte stability at 1 µM in series [9] is 93%. The IC50 in series [18] was 607 nM. The clearance is 8.17 mL/min/kg in series [19] and 18.3 mL/min/kg in [26]. Also, the hepatic bioavailability predicted from hepatocyte stability (Fh) at 1 µM in series [28] is 79%.
Turning to `C[C@@H]1OC(=O)NN=C1c1ccc(-c2cnn(C(F)F)c2)c(C(F)(F)F)c1`, the EC50 in series [2] worked out at 20 nM; in series [4], 25 nM; in [10], 15 nM; in series [11] it was 52 nM; in series [12], 13 nM; in series [14], 0.18 nM. For the same molecule, the EC50 was found to be 32 nM in series [17], 47 nM in series [20], 37 nM in [24] and 0.38 nM in series [29]. The Fh at 1.5 h, 1 µM in series [3] stood at 69%; in series [22], 27%. Also, in series [6], the “Ratio IC50/EC50” value was 202. For the same molecule, in series [9], the predicted hepatic bioavailability (Fh) from hepatocyte stability at 1 µM is 99%. In series [18], this molecule returned an IC50 of 37 nM. Moreover, in series [26], the clearance was 197 mL/min/kg. For the same molecule, the hepatic bioavailability predicted from hepatocyte stability (Fh) at 1 µM in series [28] was 32%.

For orientation: bioavailability means the share of a dose that reaches the circulation, judged against a reference dose that is usually intravenous. Usually EC50 stands for the concentration giving half of the maximal effect. Higher therefore signals a less potent agent. As usually defined, the half-life is the time needed for the level to fall by half in the phase considered. Low readings indicate rapid decline, high ones slow decline. The IC50 is the point on the concentration scale where inhibition reaches its midpoint. A low value points to greater potency. Usually clearance stands for the rate of elimination divided by the concentration. The low end stands for inefficient removal, the high end for efficient removal.

(Values after ChEMBL document CHEMBL6071190, “Discovery of BAY 2666605, a Molecular Glue for PDE3A and SLFN12” (ACS Med Chem Lett, 2024).)
